Key:
[1] = system: OVA-sensitized and challenged mice; experiment: OVA-induced allergic asthma mouse model; format: in vivo; conditions: for OVA-induced airway sensitivity / airway resistance: pretreatment, F56 10 mg/kg i.p. 12 hours before OVA challenge, methacholine
Description: (A) Protocol of induction of allergic airway inflammation solution after allergen antigen challenge in a wild-type mouse and time course. F56 (10 mg/kg three times/day) was applied after tertiary OVA challenge. (B) Airway reactivity measured by whole body plethysmography in an OVA-induced asthma model. Penh was measured in response to an increased dose of methacholine (mean±S.E., n=4). (C) Representative PAS staining of airway tissue. Size bar, 100 μm. (D) Summary of PAS positive cells (mean±S.E., n=4). * P<0.05.
Experiments were performed using 8-week-old BALB/c mice. The experimental protocol was approved by the Animal Ethics Committee of Yonsei University. Mice were housed and maintained in an animal facility under standard laboratory conditions [12/12 hours light/dark cycle, controlled temperature (21±2° C.) and humidity (55±5%) and access to any food and water]. All the experiments were performed according to the guidelines of Yonsei University Animal Research Committee. Mice were divided to 3 groups, vehicle group (vehicle-treated PBS-sensitized and challenged mice), OVA group (vehicle-treated OVA-sensitized and challenged mice) and OVA+F56 group (F56-treated OVA-sensitized and challenged mice). Age and sex-matched 8-week-old mice were sensitized by i.p. injection of OVA (Sigma-Aldrich) on Days 0 and 14. The sensitization emulsion was composed of 50 μg OVA and 2 mg aluminum potassium sulfate in 200 μL saline solution. On Days 21, 22 and 23, sensitized mice were lightly anesthetized by isoflurane inhalation and challenged with 100 μg OVA in 30 μL saline solution administered intranasally. The control mice were treated in the same manner as PBS. F56 (10 mg/kg) was administered by i.p injection 12 hours before i.n. OVA challenge, respectively.
The airway response for methacol (MCh) 24 hours after the last OVA exposure was measured using FlexiVent system (Scireq, Montreal, QC, Canada). Mice were anesthetized by intraperitoneal injection of the mixture of Zoletil (30 mg/kg; Virbac Laboratories, Carros, France) and Rompun (10 mg/kg; Bayer, Leverkusen, Germany), and then tracheostomy was performed to connect to FlexiVent. The base line airway resistance was measured after spraying saline solution for 10 seconds using Aeroneb ultrasonic nebulizer (SCIREQ). After measuring the base line, the mice were exposed to nebulized methacholine at an increased concentration (0, 1.56, 3.13, 6.25, 12.5 and 25 mg/mL). In addition, using whole body plethysmography (Buxco, Miami, FL, USA), the bronchial airway responsibility was measured. As a major index of the airway responsibility, enhanced pause (Penh) was used. Under the base line condition, Penh was measured for 2 minutes. Then, the mice were exposed to inhalation of PBS or MCh (25 mg/mL) for 2 minutes. The Penh result was expressed as an absolute value.
After evaluation of the airway responsiveness, BAL was performed. The cells were pelleted by centrifugation and resuspended in PBS to obtain the number of cells. Cytospin was prepared with a cell centrifuge (Shandon Cytospin 4 cell centrifuge; Thermo Scientific, MA, USA, USA) and stained with Diff-Quik Stain Set (Dade Behring, USA, DE, USA) to evaluate inflammation.
For evaluation of airway inflammation, left lung was fixed in 4% paraformaldehyde overnight and embedded in paraffin. A histological slide was prepared from 5-μm section, and stained with hematoxylin and eosin (H&E). The inflammation score showing the severity of bronchial inflammation was evaluated by 3 blind observers using a method reported conventionally. To evaluate goblet cell hyperplasia, the section was stained with periodic acid-Schiff (PAS) using PAS staining kit (Sigma-Aldrich), according to the manufacturer's protocol. The nasal cavity mucous membrane and HNE cells collected on the transwell were softly washed with PBS and fixed with 4% paraformaldehyde. […]

MUC5AC mRNA = experiment: Real-time PCR of MUC5AC mRNA in IL-4-treated HNE cells; format: cell-based, human; conditions: IL-4-treated HNE cells (F10: 120 hours after treatment)
Description: (A) The MUC5AC mRNA expression level was determined at the indicated time after treatment of F56 ([…]) in IL-4 (10 ng/ml)-treated HNE cells (mean±S.E., n=4). (B) Periodic acid-Schiff (PAS) staining showing goblet cell hyperplasia of IL-4 and IL-13 (10 ng/ml)-treated HNE cells in presence or absence of F56 ([…]) at Day 7. (C) Measurement of the total volume of ASL and fluid meniscus in HNE cells expressing wild-type (wt) or mutant (mt) PDS. The HNE cells were treated with IL-4 (10 ng/ml, 48 hours) in presence or absence of […]. (D) Representative image of a transwell insert having normal HNE cells. Arrows indicate the fluid meniscus of HNE cells treated with IL-4 (10 ng/ml, 48 hours) in presence or absence of […]. (E) Representative protein expression result of pendrin in IL-4 and IL-13-treated HNE cells. […]
The MUC5AC mRNA expression level was determined in 120 hours after F10 treatment by real-time quantitative PCR in IL-4-treated HNE cells.
The total messenger RNA (mRNA) was extracted using TRIzol reagent (Invitrogen, Carlsbad, CA, USA), and was reverse-transcribed using a random hexamer primer, an oligo(dT) primer and SuperScript® III reverse transcriptase (Invitrogen). Quantitative real-time PCR was performed using StepOnePlus Real-Time PCR system (Applied Biosystems, Foster City, CA, USA) and Thunderbird SYBR qPCR mix (Tokyobo, Osaka, Japan). […]

[2] = established model of allergic asthma, 10 mg/kg three times/day after tertiary OVA challenge

Compound	OVA-induced airway sensitivity / airway resistance [1]	mRNA expression of IL-4-induced MUC5AC (MUC5AC mRNA)	serum level of OVA-specific IgG ([1]; OVA-challenged mice)	goblet cells, inflammation infiltration and epithelial thickness in central airway (histology) ([1]; OVA-challenged mice, 10 mg/kg i.p.)	average inflammation score ([1]; OVA-challenged mice, versus non-treated group)	number of eosinophils and neutrophils in BALF ([1]; OVA-sensitized mice, 10 mg/kg i.p.)	OVA-induced airway sensitivity [1, 2]	PAS positive cells in the airway epithelium [1, 2]
CC(C)(C)c1ccc(C2=NC(=Cc3ccc[nH]3)C(=O)O2)cc1 [F10, 4-((1H-pyrrol-2-yl)methylene)-2-(4-(tert-butyl)phenyl)oxazol-5 (4H)-one]	reduced the airway resistance	reduced the mRNA expression of MUC5AC in a concentration-dependent manner						
CC(C)(C)c1ccc(C2=NC(=Cc3cccs3)C(=O)O2)cc1 [F56, 2-(4-(tert-butyl)phenyl)-4-(thiophen-2-ylmethylene)oxazol-5(4H)-one]	significantly weakened	significantly reduced	not changed	weekended	significantly lower	reduced	significantly reduced	significantly reduced

Source: US12691101B2, “Compound and method for preventing or treating of respiratory diseases comprising the same as an active ingredient” (YONSEI UNIVERSITY, UNIVERSITY - INDUSTRY FOUNDATION (UIF), priority 2019, dated 2026)
